Measurements as given in patent US11304956B2, “Use of 7-bromo-5-(O-chlorophenyl)-3-propoxy-1,2-dihydro-3H-1,4-benzodiazepin-2-one for inhibition of neuropathic pain and seizures of different etiology” (priority 2016, dated 2022).

Legend:
[1] = test system: model of neuropathic pain in rats; assay: Model of neuropathic pain (sciatic nerve ligation), threshold of pain sensitivity by dolorimeter; type: in vivo, male Wistar rats; settings: for Changes in the threshold of pain perception, regarding healthy limb: damaged vs healthy limb before administration (baseline); for Threshold of pain sensitivity, damaged limb / Threshold of pain sensitivity, healthy limb: day 14 after ligation, before administration (baseline), M±m, n=10; for Threshold of pain sensitivity 2 hours after compounds administration: damaged limb
Procedure: An evaluation of the antinociceptive action of the test compound (1) on a model of neuropathic pain was carried out on 50 male Wistar rats weighing 270-310 g. The model of neuropathic pain was reproduced by ligation of the sciatic nerve at the level of the upper third of the thigh at the level of the popliteal fossa higher than the site of its trifurcation by N. tibialis, N. peroneus and N. suralis (see Mironov A. N. et al. Guidelines for conducting preclinical studies of drugs. Part one.—Moscow 2012. p. 197-219). The development of the pathological process lasted 14 days. The degree of hyperalgesia was determined using a dolorimeter (Dolorimeter Baseline, USA) by determining the threshold of pain sensitivity (TPS)—the minimum pressure on the lower surface of the rat's foot (g/mm^2), which caused pain in the animal (vocalization and/or withdrawal of the foot). Each animal was given 5 attempts; the threshold value was taken with such a pressure force, which caused a positive response in at least one attempt. The threshold of pain sensitivity was compared on intact and damaged limbs on day 14 after ligation (pathology without treatment), as well as on the injured limb after 2 hours (peak of action) after the drugs administration. The test compound and the reference drug (ketorolac) were administered intragastrally (as gavage) once at doses of 0.5 and 3 mg/kg. Sciatic nerve ligation in animals caused the development of neuropathic pain syndrome, which manifested itself in behavioral reactions of the rat and lowering the threshold of pain sensitivity by an average of 44-48% (see Table 1). The analgesic effect of Compound 1 compared with ketorolac under the conditions of their intragastral administration on the model of neuropathic pain in rats (M±m, n=10, where n is the number of animals in the experiments) is shown in Table 1.

[2] = test system: carrageenan rat paw edema; assay: Carrageenan rat paw edema; type: in vivo, male white rats
Text: Given the fact that Compound 1 affects not only the painful, but also the inflammatory phase, we undertook an in-depth study of its anti-inflammatory effect. The most common screening method of anti-inflammatory activity is the model of inflammatory edema of the rat hind paw, induced by the subplantar administration of various phlogogenic agents. Under the conditions of carrageenan administration, a sufficiently pronounced edema reaction is observed, which slowly develops and persists for a long time. The maximum size of edema is observed in 2-4 hours.
The anti-inflammatory properties of the test compounds were studied in the model of carrageenan rat paw edema. Male white rats weighing 150-180 g were used in the experiments. Before the administration of the experimental substances, the volumes of the rats' paws subsequently injected by phlogogen were measured. The test compounds and the reference drug—diclofenac-sodium, were administered intraperitoneally 40 minutes prior the inflammation induction. The control group of the rats received an equivalent amount of physiological solution in the emulsion with Tween-80. Acute aseptic inflammation was induced by a 1% aqueous solution of 0.1 ml)—carrageenan injection under plantar aponeurosis of the hind paw of animals of the experimental and control groups (see Trinus F. P. Nonsteroidal anti-inflammatory drugs/F. P. Trinus, N. A. Mohort, B. M. Klebanov//K., 1975, pp. 204-231., Winter C. A. Carrageenin—induced edema in hind paw of the rat as an assay for antiinflammatory drugs/C. A. Winter, E. A. Risley, G. V. Nuss//Proc. Soc. Exp. Biol. Med.—1962.—Vol. 111.—P. 544-547). The inflammatory reaction significance was evaluated after two and four hours after the phlogogen injection. Registration of edema size was carried out by mechanical measurement of foot volume in dynamics according to Zakharevsky A. S. (see Zaharevskiy A. S. The influence of some indole derivatives on the nervous system. Diss. cand. med. science/Zaharevskiy Aleksandr Stepanovich-Minsk.—1969.—78-80 p.). The edema extent was estimated according to the difference in volume between the swollen paw and the paw before inflammation induction. The anti-inflammatory efficacy of the test compounds was determined as the ability of the test compounds to suppress the inflammatory response in the experimental animals compared to the control animals and expressed as a percentage. The calculation was carried out according to the following formula:
The percentage of inflammation suppression=(ΔVκ−ΔV ? /ΔVκ)·100%,
where: ΔVκ—the average increase in the volume of the swollen paw in the control;
ΔV ? —the average increase in the volume of the swollen paw in animals injected by experimental substances.

[3] = test system: formalin test in mice; assay: Formalin test (licking time of the injected paw); type: in vivo, white male non-linear mice; settings: for I phase, % effect (decrease in the time of licking of the paw): phase 0-5 min; for II phase, effect (decrease in the time of licking of the paw): phase 15-40 min
[4] = ED50 by analgesic effect (preliminary studies / literature data); type: in vivo; settings: according to preliminary studies
Procedure: After oral administration of Compound 1 and ketorolac at a dose of 3 mg/kg (which is ED50 according to the literature data for ketorolac), the degree of analgesic effect of the compound exceeded the effect of reference drug both by strength and duration.
To determine the safety of this compound in a chronic trial during long-term administration, it was administered to rats for 28 days at a dose close to ED50 by analgesic effect (0.5 mg/kg).

[5] = 3.0 mg/kg intraperitoneally 40 min before carrageenan
[6] = 10.0 mg/kg intraperitoneally 40 min before carrageenan
[7] = 0.01 mg/kg intraperitoneally 40 min before formalin
[8] = 0.10 mg/kg intraperitoneally 40 min before formalin
[9] = 3.00 mg/kg intraperitoneally 40 min before formalin

Structure (SMILES): CCCOC1N=C(c2ccccc2Cl)c2cc(Br)ccc2NC1=O (centres unmarked) [Compound 1, 7-bromo-5-(o-chlorophenyl)-3-propoxy-1,2-dihydro-3H-1,4-benzodiazepin-2-one]
- Changes in the threshold of pain perception, regarding healthy limb ([1]; 0.5 mg/kg group): −48.4 ± 4.6%
- Threshold of pain sensitivity, damaged limb ([1]; 0.5 mg/kg group): 223.5 ± 20.1 g/mm^2
- Threshold of pain sensitivity, healthy limb ([1]; 0.5 mg/kg group): 434.3 ± 13.4 g/mm^2
- Threshold of pain sensitivity 2 hours after compounds administration ([1]; 0.5 mg/kg intragastrally once): 269.3 ± 19.4 g/mm^2
- Changes in the threshold of pain perception, regarding healthy limb ([1]; 3 mg/kg group): −44.3 ± 2.9%
- Threshold of pain sensitivity, damaged limb ([1]; 3 mg/kg group): 295.7 ± 29.9 g/mm^2
- Threshold of pain sensitivity, healthy limb ([1]; 3 mg/kg group): 523.6 ± 28.1 g/mm^2
- Threshold of pain sensitivity 2 hours after compounds administration ([1]; 3 mg/kg intragastrally once): 532.8 ± 47.1 g/mm^2
- Inhibition of edema in 2 hours (%) [2, 5]: 36.7 ± 4.1 %
- Inhibition of edema in 4 hours (%) [2, 5]: 25.00 ± 2.7 %
- Inhibition of edema in 2 hours (%) [2, 6]: 47.0 ± 4.1 %
- Inhibition of edema in 4 hours (%) [2, 6]: 26.70 ± 5.4 %
- I phase, % effect (decrease in the time of licking of the paw) [3, 7]: 15.00 ± 4.11%
- II phase, effect (decrease in the time of licking of the paw) [3, 7]: 32.10 ± 10.10
- I phase, % effect (decrease in the time of licking of the paw) [3, 8]: 76.00 ± 6.50 %
- II phase, effect (decrease in the time of licking of the paw) [3, 8]: 54.00 ± 8.60
- I phase, % effect (decrease in the time of licking of the paw) [3, 9]: 91.10 ± 18.80 %
- II phase, effect (decrease in the time of licking of the paw) [3, 9]: 98.4 ± 15.0
- Activity in the first phase relative to diclofenac sodium ([3]; Compound 1 at 0.1 mg/kg vs diclofenac sodium at 10 mg/kg, first phase): 1.5 times
- ED50 [4]: 0.5 mg/kg
